Laboratory results taken from the NIST ThermoML archive (doi:10.1021/je800571y).
± gives the expanded uncertainty stated by the source.

Experiment: xn = mol fraction of the nth substance listed
Conditions: 101 kPa, Liquid

CCC(C)=O [butanone] + CC(C)CO
Conditions | mass density, 293.15 K [kg/m3] | mass density, 298.15 K [kg/m3] | mass density, 303.15 K [kg/m3] | mass density, 308.15 K [kg/m3] | mass density, 313.15 K [kg/m3] | viscosity, 293.15 K [mPa·s] | viscosity, 298.15 K [mPa·s] | viscosity, 303.15 K [mPa·s] | viscosity, 308.15 K [mPa·s] | viscosity, 313.15 K [mPa·s]
x1 = 0.0684 | 801.9 ± 0.99 | 797.93 ± 1 | 794.21 ± 1.1 | 790.04 ± 1.1 | 786.54 ± 1.1 | 3.138 ± 0.56 | 2.611 ± 0.47 | 2.24 ± 0.41 | 1.913 ± 0.35 | 1.625 ± 0.3
x1 = 0.1365 | 802.11 ± 0.99 | 798.06 ± 1 | 794.25 ± 1.1 | 790.03 ± 1.1 | 786.39 ± 1.1 | 2.429 ± 0.44 | 2.054 ± 0.38 | 1.78 ± 0.33 | 1.534 ± 0.29 | 1.33 ± 0.25
x1 = 0.2044 | 802.32 ± 1 | 798.18 ± 1 | 794.29 ± 1.1 | 790 ± 1.1 | 786.22 ± 1.1 | 1.862 ± 0.34 | 1.566 ± 0.29 | 1.404 ± 0.27 | 1.193 ± 0.23 | 1.074 ± 0.21
x1 = 0.2721 | 802.52 ± 1 | 798.29 ± 1 | 794.32 ± 1.1 | 789.98 ± 1.1 | 786.06 ± 1.1 | 1.426 ± 0.27 | 1.206 ± 0.23 | 1.104 ± 0.22 | 0.9579 ± 0.19 | 0.8538 ± 0.17
x1 = 0.3395 | 802.72 ± 1 | 798.41 ± 1 | 794.36 ± 1.1 | 789.95 ± 1.1 | 785.89 ± 1.1 | 1.111 ± 0.22 | 0.9449 ± 0.19 | 0.8637 ± 0.17 | 0.7612 ± 0.16 | 0.6894 ± 0.14
x1 = 0.4066 | 802.92 ± 1 | 798.52 ± 1.1 | 794.39 ± 1.1 | 789.92 ± 1.1 | 785.73 ± 1.1 | 0.8561 ± 0.17 | 0.7513 ± 0.15 | 0.676 ± 0.14 | 0.6222 ± 0.13 | 0.5674 ± 0.12
x1 = 0.4735 | 803.13 ± 1 | 798.63 ± 1.1 | 794.42 ± 1.1 | 789.89 ± 1.1 | 785.56 ± 1.1 | 0.7002 ± 0.15 | 0.607 ± 0.13 | 0.5418 ± 0.12 | 0.5176 ± 0.11 | 0.46 ± 0.1
x1 = 0.5402 | 803.33 ± 1 | 798.75 ± 1.1 | 794.46 ± 1.1 | 789.87 ± 1.1 | 785.4 ± 1.2 | 0.6142 ± 0.13 | 0.5305 ± 0.12 | 0.4663 ± 0.11 | 0.4456 ± 0.1 | 0.3948 ± 0.093
x1 = 0.6066 | 803.54 ± 1.1 | 798.87 ± 1.1 | 794.49 ± 1.1 | 789.85 ± 1.1 | 785.23 ± 1.2 | 0.538 ± 0.12 | 0.4883 ± 0.11 | 0.4135 ± 0.096 | 0.4102 ± 0.096 | 0.34 ± 0.084
x1 = 0.6727 | 803.75 ± 1.1 | 798.99 ± 1.1 | 794.53 ± 1.1 | 789.83 ± 1.1 | 785.08 ± 1.2 | 0.5271 ± 0.12 | 0.4556 ± 0.1 | 0.3743 ± 0.09 | 0.3752 ± 0.09 | 0.3138 ± 0.079
x1 = 0.7387 | 803.97 ± 1.1 | 799.12 ± 1.1 | 794.58 ± 1.1 | 789.82 ± 1.2 | 784.92 ± 1.2 | 0.5071 ± 0.11 | 0.4444 ± 0.1 | 0.3713 ± 0.089 | 0.3573 ± 0.087 | 0.2909 ± 0.075
x1 = 0.8044 | 804.2 ± 1.1 | 799.25 ± 1.1 | 794.63 ± 1.1 | 789.81 ± 1.2 | 784.77 ± 1.2 | 0.5079 ± 0.11 | 0.4189 ± 0.097 | 0.3607 ± 0.087 | 0.3498 ± 0.085 | 0.2754 ± 0.072
x1 = 0.8698 | 804.43 ± 1.1 | 799.4 ± 1.1 | 794.68 ± 1.1 | 789.8 ± 1.2 | 784.62 ± 1.2 | 0.4996 ± 0.11 | 0.4217 ± 0.098 | 0.3443 ± 0.084 | 0.3334 ± 0.083 | 0.28 ± 0.073
x1 = 0.935 | 804.67 ± 1.1 | 799.54 ± 1.1 | 794.74 ± 1.1 | 789.79 ± 1.2 | 784.47 ± 1.2 | 0.4722 ± 0.11 | 0.3617 ± 0.087 | 0.3135 ± 0.079 | 0.3005 ± 0.077 | 0.2769 ± 0.073
x1 = 1 | 804.92 ± 1.1 | 799.7 ± 1.1 | 794.81 ± 1.1 | 789.78 ± 1.2 | 784.32 ± 1.2 | 0.3956 ± 0.093 | 0.2828 ± 0.074 | 0.2666 ± 0.071 | 0.2601 ± 0.07 | 0.2545 ± 0.069

CCC(C)=O [butanone] + CC(C)O
Conditions | mass density, 293.15 K [kg/m3] | mass density, 298.15 K [kg/m3] | mass density, 303.15 K [kg/m3] | mass density, 308.15 K [kg/m3] | mass density, 313.15 K [kg/m3] | viscosity, 293.15 K [mPa·s] | viscosity, 298.15 K [mPa·s] | viscosity, 303.15 K [mPa·s] | viscosity, 308.15 K [mPa·s] | viscosity, 313.15 K [mPa·s]
x1 = 0.0562 | 786.4 ± 0.98 | 782.34 ± 0.98 | 778.9 ± 1.1 | 773.52 ± 1.1 | 769.21 ± 1.1 | – | – | – | – | –
x1 = 0.0595 | – | – | – | – | – | 1.816 ± 0.34 | 1.596 ± 0.3 | 1.413 ± 0.27 | 1.272 ± 0.24 | 1.165 ± 0.23
x1 = 0.1136 | 787.47 ± 0.98 | 783.31 ± 0.99 | 779.85 ± 1.1 | 774.58 ± 1.1 | 770.17 ± 1.1 | – | – | – | – | –
x1 = 0.1282 | – | – | – | – | – | 1.504 ± 0.28 | 1.362 ± 0.26 | 1.207 ± 0.23 | 1.095 ± 0.21 | 1.003 ± 0.2
x1 = 0.1724 | 788.54 ± 0.99 | 784.36 ± 1 | 780.81 ± 1.1 | 775.58 ± 1.1 | 771.13 ± 1.1 | 1.294 ± 0.25 | 1.185 ± 0.23 | 1.046 ± 0.21 | 0.9637 ± 0.19 | 0.8693 ± 0.17
x1 = 0.2326 | 789.67 ± 0.99 | 785.46 ± 1 | 781.82 ± 1.1 | 776.64 ± 1.1 | 772.12 ± 1.1 | 1.103 ± 0.21 | 0.9992 ± 0.2 | 0.9083 ± 0.18 | 0.8366 ± 0.17 | 0.774 ± 0.16
x1 = 0.2941 | 790.83 ± 1 | 786.59 ± 1 | 782.85 ± 1.1 | 777.7 ± 1.1 | 773.13 ± 1.1 | 0.9668 ± 0.19 | 0.8812 ± 0.18 | 0.8021 ± 0.16 | 0.7488 ± 0.15 | 0.6929 ± 0.14
x1 = 0.3571 | 792.05 ± 1 | 787.74 ± 1 | 783.91 ± 1.1 | 778.8 ± 1.1 | 774.16 ± 1.2 | – | – | – | – | –
x1 = 0.3572 | – | – | – | – | – | 0.852 ± 0.17 | 0.7675 ± 0.16 | 0.7154 ± 0.15 | 0.6663 ± 0.14 | 0.6169 ± 0.13
x1 = 0.4217 | 793.29 ± 1 | 788.95 ± 1 | 785.01 ± 1.1 | 779.92 ± 1.1 | 775.21 ± 1.2 | 0.7693 ± 0.16 | 0.6949 ± 0.14 | 0.6406 ± 0.14 | 0.5987 ± 0.13 | 0.5567 ± 0.12
x1 = 0.4878 | 794.6 ± 1 | 790.18 ± 1 | 786.14 ± 1.1 | 781.07 ± 1.1 | 776.27 ± 1.2 | 0.7113 ± 0.15 | 0.6289 ± 0.13 | 0.5816 ± 0.13 | 0.5428 ± 0.12 | 0.4753 ± 0.11
x1 = 0.5555 | 795.96 ± 1 | 791.44 ± 1 | 787.29 ± 1.1 | 782.24 ± 1.2 | 777.37 ± 1.2 | – | – | – | – | –
x1 = 0.5556 | – | – | – | – | – | 0.6609 ± 0.14 | 0.5801 ± 0.13 | 0.5303 ± 0.12 | 0.4834 ± 0.11 | 0.4406 ± 0.1
x1 = 0.625 | 797.35 ± 1 | 792.74 ± 1.1 | 788.49 ± 1.1 | 783.44 ± 1.2 | 778.48 ± 1.2 | 0.6072 ± 0.13 | 0.5071 ± 0.11 | 0.4848 ± 0.11 | 0.4314 ± 0.1 | 0.3846 ± 0.091
x1 = 0.6962 | 798.79 ± 1.1 | 794.08 ± 1.1 | 789.7 ± 1.1 | 784.66 ± 1.2 | 779.61 ± 1.2 | 0.5511 ± 0.12 | 0.4516 ± 0.1 | 0.4355 ± 0.1 | 0.3751 ± 0.09 | 0.3302 ± 0.082
x1 = 0.7692 | 800.26 ± 1.1 | 795.45 ± 1.1 | 790.95 ± 1.1 | 785.91 ± 1.2 | 780.76 ± 1.2 | – | – | – | – | –
x1 = 0.7693 | – | – | – | – | – | 0.5144 ± 0.11 | 0.3852 ± 0.091 | 0.3866 ± 0.092 | 0.3345 ± 0.083 | 0.316 ± 0.08
x1 = 0.8442 | 801.6 ± 1.1 | 796.86 ± 1.1 | 792.21 ± 1.1 | 787.18 ± 1.2 | 781.93 ± 1.2 | 0.4675 ± 0.11 | 0.353 ± 0.086 | 0.3359 ± 0.083 | 0.306 ± 0.078 | 0.286 ± 0.074
x1 = 0.9211 | 803.3 ± 1.1 | 798.3 ± 1.1 | 793.51 ± 1.1 | 788.48 ± 1.2 | 783.12 ± 1.2 | 0.4293 ± 0.099 | 0.3262 ± 0.081 | 0.2972 ± 0.076 | 0.2758 ± 0.073 | 0.2706 ± 0.072
x1 = 1 | 804.92 ± 1.1 | 799.7 ± 1.1 | 794.81 ± 1.1 | 789.78 ± 1.2 | 784.32 ± 1.2 | – | 0.2828 ± 0.074 | 0.2666 ± 0.071 | 0.2601 ± 0.07 | 0.2545 ± 0.069
